Measured values: patent publication US20160122406A1, “ANALOGS OF PITUITARY ADENYLATE CYCLASE-ACTIVATING POLYPEPTIDE (PACAP) AND METHODS FOR THEIR USE” (THE ADMINISTRATORS OF THE TULANE EDUCATIONAL FUND, priority 2013, published 2016)
“Also recorded” adds a separate entry of the source. Where two headings read alike, the source gives them in different places. Square brackets hold non-standard residues; d marks the D form. * marks the point of attachment. Iac = imidazole-4-acrylic acid, O=C(/C=C/c1c[nH]cn1)*; Acetyl(2-(4-imidazolyl)) = O=C(Cc1c[nH]cn1)*

Tests used:
[1] = rat, in vivo, iv; cited from earlier work
Male C57BL/6 mice = assay: Cisplatin-induced nephrotoxicity in mice; format: in vivo
Experimental: (§1) Male C57BL/6 mice were given a single intraperitoneal injection of 20 mg/kg of cisplatin. Twenty micrograms of PACAP38 were given intraperitoneally 1 hour before the injection of cisplatin and additional doses were given at 24 and 48 hours after the initial dose. The control group of mice was injected intraperitoneally with the same volume of saline as for the injections of cisplatin and PACAP38 on the same schedule. The mice were euthanized 24 hours after the final injection of PACAP38. The serum creatinine levels were determined at sacrifice with isotope dilution liquid chromatography mass spectroscopy/mass spectroscopy. Each value represents the mean plus/minus the standard error of eight determinations. ** p<0.01 compared to the group treated only with cisplatin.
as §1, with “cystatin C” for “creatinine”, “commercial ELISA kits.” for “isotope dilution liquid chromatography mass spectroscopy/mass spectroscopy.”
as §1, with “body weights of the mice” for “serum creatinine levels”, “determined 1-2 hours before the first injection of PACAP38 and” for “determined”, “sacrifice.” for “sacrifice with isotope dilution liquid chromatography mass spectroscopy/mass spectroscopy.”, “p<0.01 and * p<0.05” for “p<0.01”
as §1, with “kidney” for “serum creatinine”, “levels of TNF-α” for “levels”, “commercial ELISA kits.” for “isotope dilution liquid chromatography mass spectroscopy/mass spectroscopy.”
as §1, with “kidney” for “serum creatinine”, “levels of IFN-γ” for “levels”, “commercial ELISA kits.” for “isotope dilution liquid chromatography mass spectroscopy/mass spectroscopy.”, “p<0.01 and * p<0.05” for “p<0.01”
Male C57BL/6 mice were given a single intraperitoneal injection of 20 mg/kg of cisplatin. Twenty micrograms of PACAP38 were given intraperitoneally 1 hour before the injection of cisplatin and additional doses were given at 24 and 48 hours after the initial dose. […]

rat = conditions: 48 hours after start, cited from earlier work
Male Sprague-Dawley rats = assay: Arterial blood pressure and heart rate after intravenous injection in anesthetized rats; format: in vivo; conditions: 10 micrograms i.v.; for heart rate before intravenous injection: the 'from' value; for heart rate after intravenous injection: the 'to' value
From the text: FIG. 9 is a graph showing the changes in arterial blood pressure caused by [Iaa^1]PACAP38, [Iaa^1,D-Ser^2]PACAP38, [Iaa^1,Ala^22]PACAP38, and [Iaa^1,D-Ser^2,Ala^22]PACAP38. Male Sprague-Dawley rats (300-325 g) were anesthetized with 5% isoflurane for induction and then intubated. The rats were then ventilated (Hallowell EMC) with 100% O2 and 1-2% isoflurane. A PE-50 cannula was then placed in the femoral artery and connected to a pressure transducer. The arterial pressure signal was sent to an electronic chart recorder (BioPac). Heart rate was electronically derived from the arterial pressure signal. A similar PE-50 cannula was also placed in the femoral vein to allow for intravenous injection of the test peptides. Ten micrograms of the test peptides were injected intravenously in 100 μl of 0.9% NaCl in a random order and the cannula was immediately flushed with 100 μl of 0.9% NaCl. Changes in blood pressure and heart rate were calculated from the electronic record. […] Intravenous injection of [Iaa1]PACAP38 or [Iaa1,Ala22]PACAP38 also produced an increase in the heart rate from 378 bpm to 425 bpm or from 415 bpm to 440 bpm, respectively.
FIG. 10 is a graph showing the changes in arterial blood pressure caused by [Iac^1]PACAP38, [Iac^1,Ala^22]PACAP38, [Iac^1,D-Ser^2,Ala^22]PACAP38, and [Iaa^1,Ala^16,17,D-Lys^38]PACAP38. Male Sprague-Dawley rats (300-325 g) were anesthetized with 5% isoflurane for induction and then intubated. The rats were then ventilated (Hallowell EMC) with 100% O2 and 1-2% isoflurane. A PE-50 cannula was then placed in the femoral artery and connected to a pressure transducer. The arterial pressure signal was sent to an electronic chart recorder (BioPac). Heart rate was electronically derived from the arterial pressure signal. A similar PE-50 cannula was also placed in the femoral vein to allow for intravenous injection of the test peptides. Ten micrograms of the test peptides were injected intravenously in 100 μl of 0.9% NaCl in a random order and the cannula was immediately flushed with 100 μl of 0.9% NaCl. Changes in blood pressure and heart rate were calculated from the electronic record. Intravenous injection of [Iac^1,Ala^22]PACAP38 or [Iac^1,D-Ser^2,Ala^22]PACAP38 produced an increase in the heart rate from 416 bpm to 435 bpm or from 420 bpm to 441 bpm, respectively.
PACAP38 is a directly-acting arterial vasodilator and an indirectly-acting arterial vasoconstrictor. The rapid vasodilator response to intravenous administration of PACAP38 is due to stimulation of PAC1, VPAC1 and VPAC2 receptors in the blood vessels, while the slightly delayed vasoconstrictor response is mainly due to stimulation of PAC1 receptors in the adrenal medulla and the subsequent release of adrenal catecholamines. […] The critical parameter for picking a PACAP38 analog for treating a specific disease is not potency but therapeutic index.

[2] = cisplatin 20 mg/kg i.p., 20 micrograms peptide i.p. 1 h before and 24 and 48 h after, ELISA at sacrifice

[^125I]-PACAP38: 125I-radiolabelled PACAP38 used for half-life in rats
half-life in the bloodstream [1]: 5 to 6 min

PACAP38: native human pituitary adenylate cyclase-activating polypeptide, α-amidated peptide with 38 amino acids
cytoprotection against cisplatin-induced nephrotoxicity / kidney injury (Male C57BL/6 mice; PACAP38 compared with [Iac1]PACAP38): approximately equipotent; also recorded: potent cytoprotectants | cisplatin-induced increase in kidney levels of interferon γ (IFN-γ) (Male C57BL/6 mice; [2]): reduction | cisplatin-induced increase in kidney levels of monocyte chemotactic protein 1 (MCP-1, CCL2) (Male C57BL/6 mice; [2]): reduction | cisplatin-induced increase in kidney levels of tumor necrosis factor-α (TNF-α) (Male C57BL/6 mice; [2]): reduction | cisplatin-induced increase in serum cystatin C levels (Male C57BL/6 mice; [2]): reduction | cisplatin-induced body weight loss (Male C57BL/6 mice; cisplatin 20 mg/kg i.p., 20 micrograms peptide i.p. 1 h before and 24 and 48 h after, at sacrifice): reduction; also recorded: significantly reversed the weight lost | cisplatin-induced increase in serum creatinine levels (Male C57BL/6 mice; cisplatin 20 mg/kg i.p., 20 micrograms peptide i.p. 1 h before and 24 and 48 h after, at sacrifice 24 h after final injection): reduction | kidney function of cisplatin-injected mice (Male C57BL/6 mice; summary of FIGS. 3 and 4): significantly restored kidney function | inflammatory response in the kidney of cisplatin-injected mice (Male C57BL/6 mice; summary of FIGS. 6-8 (TNF-α, IFN-γ, MCP-1)): significantly blunted the inflammatory response | reduction of the infarct volume (rat; continuous i.v. infusion beginning 4 hours after start of 2-h MCAO): approximately 51% | reduction of the infarct volume (rat; continuous i.v. infusion beginning 8 hours after start of 2-h MCAO): ~22% | reduction of the infarct volume (rat; continuous i.v. infusion beginning 12 hours after start of 2-h MCAO): ~12%

Iac D-Ser Asp Gly Ile Phe Thr Asp Ser Tyr Ser Arg Tyr Arg Lys Gln Met Ala Val Lys Lys Ala Leu Ala Ala Val Leu Gly Lys Arg Tyr Lys Gln Arg Val Lys Asn Lys-NH2 (Iac-[dS]DGIFTDSYSRYRKQMAVKKALAAVLGKRYKQRVKNK-NH2) [[Iac^1,D-Ser^2,Ala^22]PACAP38]
heart rate before intravenous injection (Male Sprague-Dawley rats): 420 bpm | heart rate after intravenous injection (Male Sprague-Dawley rats): 441 bpm

Iaa D-Ser Asp Gly Ile Phe Thr Asp Ser Tyr Ser Arg Tyr Arg Lys Gln Met Ala Val Lys Lys Ala Leu Ala Ala Val Leu Gly Lys Arg Tyr Lys Gln Arg Val Lys Asn Lys-NH2 ({Acetyl(2-(4-imidazolyl))}-[dS]DGIFTDSYSRYRKQMAVKKALAAVLGKRYKQRVKNK-NH2; SMILES CC[C@H](C)[C@H](NC(=O)CNC(=O)[C@H](CC(=O)O)NC(=O)[C@@H](CO)NC(=O)Cc1c[nH]cn1)C(=O)N[C@@H](Cc1ccccc1)C(=O)N[C@H](C(=O)N[C@@H](CC(=O)O)C(=O)N[C@@H](CO)C(=O)N[C@@H](Cc1ccc(O)cc1)C(=O)N[C@@H](CO)C(=O)N[C@@H](CCCNC(=N)N)C(=O)N[C@@H](Cc1ccc(O)cc1)C(=O)N[C@@H](CCCNC(=N)N)C(=O)N[C@@H](CCCCN)C(=O)N[C@@H](CCC(N)=O)C(=O)N[C@@H](CCSC)C(=O)N[C@@H](C)C(=O)N[C@H](C(=O)N[C@@H](CCCCN)C(=O)N[C@@H](CCCCN)C(=O)N[C@@H](C)C(=O)N[C@@H](CC(C)C)C(=O)N[C@@H](C)C(=O)N[C@@H](C)C(=O)N[C@H](C(=O)N[C@@H](CC(C)C)C(=O)NCC(=O)N[C@@H](CCCCN)C(=O)N[C@@H](CCCNC(=N)N)C(=O)N[C@@H](Cc1ccc(O)cc1)C(=O)N[C@@H](CCCCN)C(=O)N[C@@H](CCC(N)=O)C(=O)N[C@@H](CCCNC(=N)N)C(=O)N[C@H](C(=O)N[C@@H](CCCCN)C(=O)N[C@@H](CC(N)=O)C(=O)N[C@@H](CCCCN)C(N)=O)C(C)C)C(C)C)C(C)C)[C@@H](C)O) [[Iaa^1,D-Ser^2,Ala^22]PACAP38]
change in arterial blood pressure (Male Sprague-Dawley rats; isoflurane-anesthetized rats): slight increase; also recorded: slightly increased | pattern of the arterial blood pressure response (Male Sprague-Dawley rats; compared with other peptides): expected physiological signature of a highly selective PAC1 receptor agonist | heart rate before intravenous injection (Male Sprague-Dawley rats): 410 bpm | heart rate after intravenous injection (Male Sprague-Dawley rats): 457 bpm
